The results in this text go back to PubChem BioAssay (NCI).

Holding throughout (assay): inhibition of tumour cell growth, NCI panel, 48 h
Assay [1] deals with MDA-N.
Assay [2] concerns DMS 114 small cell lung.
Assay [3] deals with SNB-78 CNS.
Assay [4] relates to DLD-1 colon.
Assay [5] deals with RXF-631 renal.
In assay [6] the test system is HOP-18 NSCLC.
Assay [7] relates to LXFL 529 NSCLC.
Assay [8] concerns DMS 273 small cell lung.
Assay [9] deals with XF 498 CNS.

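Cells were grown in 96-well plates and exposed to each compound for 48 hours at five concentrations; endpoints were interpolated linearly between bracketing concentrations, or set to the highest concentration if not reached. Here, GI50 denotes the concentration required for 50% inhibition of growth. TGI denotes the concentration required for complete inhibition of growth.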 Where a SMILES comes first, the peptide text is derived from it. Bridges are numbered along the chain shown (N, C = ends). Roman numbers before positions name the chains, in order. [ ]: non-standard residue; d: D form. The star is where a group is joined. Quinoxaline2carbonyl = O=C(c1cnc2ccccc2n1)*; NMeV = CN[CH](C(=O)O)C(C)C; NMeC = CN[CH](CS)C(=O)O

`CC1(C)OC2C(=O)C=C(COCc3ccccc3)C2O1` (stereo unspecified): in [1], the TGI is above 100 µM.

Regarding `CC1(C)C2CCC13CS(=O)(=O)N1O[C@]13C(=O)O2` (stereo partly specified), the TGI in assay [2], in assay [3], in assay [4], in assay [5], in [6] and in [7] was above 100 µM each time.

As for `CN(C)CCC(/C=C/c1ccccc1)=N\Nc1ccc(Cl)cc1Cl`, the TGI was 29.5 µM in assay [2]; 26.9 µM in assay [3]; 27.9 µM in assay [4]; 21.9 µM in [6]; 25.9 µM in assay [8]; 22.8 µM in assay [7].

On to `O=C(O)/C(Cl)=C(\Cl)C(=O)Nc1ccc(Cl)c(Cl)c1Cl`, for which the TGI in assay [2] was determined as 35.1 µM; in assay [3], 84.7 µM; in [4], 47.3 µM; in assay [6], 31 µM; in [8], 36.2 µM; in assay [7], 37.9 µM.

For the molecule `Cc1cc(N(CCC#N)CCC#N)ccc1/C=C1/N=C(c2ccccc2)N(N)C1=O`, the TGI in assay [2], in assay [4], in assay [9], in assay [8] and in assay [7] was above 100 µM throughout.

For `Cn1c2ccccc2n2c(=O)c3c(c(C#N)c12)CCCC3`, the TGI in assay [2], in assay [3], in assay [4], in assay [9] and in assay [8] was above 100 µM throughout.

Take `Cc1cc2c(c(C(=O)O)c1C)-c1cccc(F)c1C2=O`: the TGI in assay [2], in [3], in [4], in assay [5], in [9] and in assay [8] was above 100 µM in each case. In assay [7], the TGI was above 100 µM.

Regarding `C[CH2][Pb]([CH2]C)([CH2]C)[O]C(=O)c1ccc2ccccc2n1`, in [1], the GI50 is above 10 µM and the TGI was above 10 µM.

On to `CSC(=S)N/N=C(\C)c1cccc(C)n1`, for which the TGI in assay [1] was above 90 µM.

As to `O=P1(Oc2ccccc2)C(c2ccccc2)C(c2ccccc2)=NN1c1ccccc1` (stereo unspecified), the TGI was 43.8 µM in [2]; above 100 µM in assay [3]; 34.3 µM in [4]; above 100 µM in assay [5]; above 100 µM in [6]; above 100 µM in [9]. The TGI in [8] worked out at 89.3 µM; in [7], 45.7 µM.

For the molecule `CC1(C)OCC(C(O)C2OC(C)(C)OC2/C=N\O)O1` (stereo unspecified), the TGI in assay [2], in assay [3], in assay [4], in assay [6], in [9] and in [8] was above 100 µM each time. The TGI in assay [7] was above 100 µM.

Take `CN1COc2c(n(C)c(=O)[nH]c2=O)C1`: the TGI in [2], in [3], in assay [4], in assay [6], in assay [9] and in assay [8] was above 100 µM each time. In assay [7], this molecule returned a TGI above 100 µM.

In the case of `COC(CN1C=C(Sc2ccccc2)CC1)OC`, the TGI is 65.4 µM in [2]; above 100 µM in assay [3]; above 100 µM in assay [4]; above 100 µM in assay [6]; 66.3 µM in assay [9].

Consider `C/C=C(\C)c1cc(O)c(C)c2c1Oc1cc(O)c(Cl)c(C)c1C(=O)O2`, for which the TGI in [2] stood at 74.9 µM; in [3], 82.6 µM; in [4] it was 33.9 µM; in assay [8], 67.9 µM; in assay [7] it was 60 µM.

With `COC(=O)C(C)(C)N=CN(C)C`, the TGI in assay [2], in assay [3], in assay [4], in assay [5], in [6] and in assay [9] was above 100 µM in each case. Further, the TGI in assay [8] and in assay [7] was above 100 µM throughout.

`CN(CC(N)=O)C(=O)N(CCCl)N=O` yielded a TGI in [1] above 100 µM.

As for `CCOC1=C2N=C(Cc3ccccc3F)N=C2C(=O)c2ccccc21`, the TGI in assay [2], in assay [4], in assay [6], in [9], in assay [8] and in assay [7] was above 100 µM each time.

With `C=C1CCC2[C@@H](CCC3[C@]2(C)CCC[C@]3(C)C(=O)OC)[C@@H]1CC=O` (stereo partly specified), the TGI in [2] was 53.2 µM; in assay [3], above 100 µM; in assay [4] it was above 100 µM; in assay [5] it was above 100 µM; in assay [6], 86 µM; in [9] it was 61.6 µM. Also, the TGI was 50.1 µM in assay [8] and above 100 µM in [7]. For the same molecule, the GI50 in [5] is 44.9 µM.

Regarding `O=C(NC1CCCC1=O)c1ccccc1` (stereo unspecified), the TGI in [2], in [3], in assay [4], in assay [5], in assay [9] and in assay [8] was above 100 µM in each case.

Consider `CC(C)c1c2[nH]c3ccccc3c2c(C(C)C)c2[nH]c3ccccc3c12`, for which the TGI in [2], in assay [3], in [4], in assay [5], in assay [6] and in [9] was above 100 µM throughout. Also, the TGI in assay [8] and in [7] was above 100 µM each time.

As to `CCC1(O)C(=O)OCc2c1cc1n(c2=O)Cc2cc3cc(N)ccc3nc2-1` (stereo unspecified), the TGI in [1] was 0.285 µM.

For `CC1(C)CCC[C@]2(C)[C@@H](C=O)C(C=O)=CC[C@@H]12`, the TGI in assay [1] came to 26.4 µM.

As to `CNS(=O)(=O)NNS(=O)(=O)c1ccc(Cl)cc1`, the TGI in assay [2], in assay [4] and in [5] was above 100 µM in each case.

Turning to `COc1ccc(-c2cc(=O)c3c(OC)c(OC)c(OC)c(OC)c3o2)cc1`, the TGI in assay [1] is above 100 µM.

In [1], `N/N=C1\CC(=O)NC(=O)N1` came in with a TGI above 100 µM.

The molecule `Cc1ccc(C2=Nc3ccccc3SC(c3cccc([N+](=O)[O-])c3)C2)cc1` (stereo unspecified) had a TGI in assay [1] above 100 µM.

In the case of `CCO/C=C1\N=C(c2ccccc2Br)OC1=O`, the TGI in [2], in assay [3], in assay [4], in assay [9], in [8] and in assay [7] was above 100 µM each time.

Take `COc1cc(-c2cc(-c3cc([N+](=O)[O-])c(/C=N/NC(=O)c4ccncc4)o3)ccc2OC)ccc1C`: the TGI in assay [4], in assay [5], in assay [9] and in [7] was above 100 µM each time.

`CCOC(=O)C(=O)Nc1cc(Cl)ccc1Cl`: the TGI in [2], in assay [4], in assay [6], in [9], in assay [8] and in assay [7] was above 100 µM in each case.

`COc1cc2nc(NCCCCCNC(=O)c3ccco3)nc(N)c2cc1OC`: the TGI in assay [2] is 40.6 µM; in [3], 89.5 µM; in [5] it was 74.1 µM; in assay [6] it was above 100 µM; in assay [8], above 100 µM.

Consider `COc1ccc(C(Cl)=C(c2ccc(OCCN(C)C)cc2)c2ccc(OCCN(C)C)cc2)cc1`, for which the TGI in assay [2] was 3.06 µM; in assay [3], 3.94 µM; in assay [4], 11.3 µM; in assay [5], 0.966 µM; in [9], 2.81 µM; in assay [8], 4.17 µM.

In the case of `COCCOCOc1ccc(OCOCCOC)c2c1C(=O)c1ccccc1C2=O`, the TGI in [2] is 37.3 µM; in assay [3] it was above 100 µM; in [4] it was above 100 µM; in assay [6], above 100 µM; in assay [9], above 100 µM; in assay [8], above 100 µM.

For the molecule `Fc1cccc(C2SCc3nc4ccccc4n32)c1F` (stereo unspecified), the TGI in assay [2] is above 100 µM; in [3] it was above 100 µM; in assay [4] it was above 100 µM; in assay [5], 36 µM; in [6] it was above 100 µM; in assay [8], 50.5 µM. This molecule also gave a TGI in [7] above 100 µM.

On to `Cc1cc(N(CCC#N)CCC#N)ccc1/C=C1N=C(/C=C\c2ccccc2)N(c2ccc(Cl)cc2)C\1=O`, for which the TGI in assay [2], in [3], in assay [4], in [1], in [6] and in assay [9] was above 100 µM in each case. Besides, the TGI in [8] is above 100 µM.

Molecule `CC1NC(=O)C(NC(=O)c2cnc3ccccc3n2)COC(=O)C(C(C)C)N(C)C(=O)C2CSSCC(C(=O)N(C)C(C(C)C)C(=O)OCC(NC(=O)c3cnc4ccccc4n3)C(=O)NC(C)C(=O)N2C)N(C)C1=O` (stereo unspecified) (I: Quinoxaline2carbonyl-SA[NMeC][NMeV] / II: Quinoxaline2carbonyl-SA[NMeC][NMeV]; ester I:1-II:C, I:C-II:1; disulfide I:3-II:3; configuration not given here) returned a TGI in assay [1] below 0.01 µM.

For the molecule `CC1CN1c1c(C(=O)/C=C/c2ccccc2)c(-c2ccccc2)nn(C)c1=O` (stereo unspecified), the TGI turned out to be 43.8 µM in assay [2]; 33.7 µM in assay [3]; 34.5 µM in assay [4]; 71.5 µM in [6]; 30.3 µM in [8]; 28.9 µM in assay [7].

Regarding `N#Cc1ccc(N=Cc2c([O-])ccc3ccccc23)cc1.[C-]#[O+].[C-]#[O+].[Ir]`, the GI50 was 1.69 µM in assay [2]; 1.96 µM in assay [4]; 2.74 µM in [6]; 2.36 µM in assay [9]; 1.84 µM in [7]. Besides, the TGI in [2] worked out at 3.66 µM; in assay [4], 4.09 µM; in assay [6] it was 8.51 µM; in assay [9], 12 µM; in assay [7], 4.32 µM.
